The record followed here is patent US7427395B2, “Chemotherapeutic agent-incorporated pharmaceutical preparation” (Genomidea Inc., priority 2002, dated 2008).

Read-outs that look alike come from different tables or passages of the source.

Experiment [1] has as its system Mouse colon cancer-derived CT-26 cells. Briefly: In vivo experiment (2): tumor volume and tumor weight of transplanted CT-26, HVJ-E/BLM into the tumor with or without intraperitoneal CDDP (Example 3). Details: species or system BALB/cAnNCrj male mice.
The subject of experiment [2] is mouse colon carcinoma cell CT26. Conditions: 30 min at 37° C., counted 2 days later.
Method: A microtube containing the sample was centrifuged at 15,000 rpm for 15 minutes at 4° C. to give the HVJ-E vector as a precipitate, and the supernatant was removed. […] Further, 2 μl of 3% Triton-X100 was added thereto to prepare a sample containing Triton-X100 at a final concentration of 0.1%, which was then left on ice for 15 minutes. Thereafter, 500 μl PBS solution was added thereto. The microtube was centrifuged at 15,000 rpm for 15 minutes at 4° C., and the supernatant was removed without removing the precipitate, and 500 μl PBS solution was added again to the precipitate. The microtube was centrifuged again at 15,000 rpm for 15 minutes at 4° C., and the supernatant was removed without removing the precipitate.
The resulting precipitate was suspended in 180 μl PBS, and the resulting sample solution was pipetted in a volume of 30 μl/microtube into 6 microtubes. Five microlitters of protamine sulfate solution prepared at 5 mg/ml and 500 μl DMEM solution (Dulbecco's modified Eagle medium) were added to each tube.
The above sample solution was added to mouse colon carcinoma cell CT26 prepared on a 6-well plate. The plate was kept for 30 minutes in an incubator at 37° C., and then the medium was exchanged with 500 μl medium (DMEM containing 10% FCS). The cells were incubated for 2 days in a CO2 incubator at 37° C. Two days later, the number of viable cells was counted to evaluate the anticancer effect.
For another experiment, the system named is colon carcinoma CT26. Briefly: In vivo experiment: tumor volume of subcutaneously transplanted CT26 after administration into the tumor (Example 2). To be noted: for average tumor volume (mean): 100 μl/mouse into the tumor, n=8.
[3] abbreviates: Day 16 (9 days after sample administration).

Method for colon carcinoma CT26: A microtube containing the sample was centrifuged at 15,000 rpm for 15 minutes at 4° C. to give the HVJ-E vector as a precipitate, and the supernatant was removed. […] Further, 2 μl of 3% Triton-X100 was added thereto to the final concentration of 0.1%, which was then kept on ice for 15 minutes. Thereafter, 500 μl PBS solution was added thereto. The microtube was centrifuged at 15,000 rpm for 15 minutes at 4° C., and the supernatant was removed without removing the precipitate, and 500 μl PBS solution was added thereto. The microtube was centrifuged again at 15,000 rpm for 15 minutes at 4° C., and the supernatant was removed without removing the precipitate. The resulting precipitate was suspended in 120 μl PBS.
In this animal experiment, BALB/c mice (8-week-old, male) were used. […] The CT-26 cells to be transplanted were suspended in DMEM medium containing 10% FCS, and 5×10^6 cells (100 μl PBS/mouse) were transplanted in the back. The mice were anesthetized by intraperitoneal administration of 500 μl of 20-fold-diluted Nembutal injection. The volume of the transplanted cancer cells was estimated by calculation of major axis×minor axis×minor axis/2. When the diameter of the tumor reached 7 to 8 mm one week after transplantation, 100 μl of the sample prepared above was administered into the site of the cancer in the mouse. On Days 7, 10, 13, 16 and 19 (that is, 3-day intervals) after transplantation of the cancer cells, the tumor diameter was measured to evaluate the anticancer effect. The number of animals was 8 in each group.

Turning to `[NH2][Pt]([NH2])([Cl])[Cl]` [CDDP, cisplatin], the “tumor weight on Day 21 after administration” value in experiment [1] (CDDP 0.2 mg/body i.p. once, alone or with 13 mg/tumor HVJ-E/BLM into the tumor) came to 1619.79 mg; in experiment [1] (CDDP 0.4 mg/body i.p. once, alone or with HVJ-E into the tumor), 1164.13 mg. The “average tumor volume on Day 21” value in experiment [1] (CDDP 0.2 mg/body i.p. once, alone or with 13 mg/tumor HVJ-E/BLM into the tumor, 10 mice) was 1720.14 mm^3; in experiment [1] (CDDP 0.4 mg/body i.p. once, 3 mice), 1367.62 mm^3.

For the compound bleomycin, the “Number of viable cells (mean)” value was 81800 in experiment [2] (1/50 bleomycin group: bleomycin 50 μg/DMEM 500 μl/well); 164600 in experiment [2] (1/500 bleomycin group: bleomycin 5 μg/DMEM 500 μl/well); 164,600 in experiment [2] (1/500 bleomycin group: bleomycin 5 μg/DMEM 500 μl/well, listed as bleomycin); 196800 in experiment [2] (1/5,000 bleomycin group: bleomycin 500 ng/DMEM 500 μl/well); 196,800 in experiment [2] (1/5,000 bleomycin group: bleomycin 500 ng/DMEM 500 μl/well, listed as bleomycin). The “average tumor volume (mean)” value is on record as 158.4 mm^3 in the experiment with colon carcinoma CT26 (Day 7 (time of sample administration)); 413.70 mm^3 in the experiment on colon carcinoma CT26 (Day 10 (Day 3 after sample administration)); 754.7 mm^3 in the experiment with colon carcinoma CT26 (Day 13); 1234.6 mm^3 with colon carcinoma CT26 (setting [3]); 1,235 mm^3 in the experiment on colon carcinoma CT26 (Day 16 (9 days after sample administration), listed as BLM). For the same compound, the “tumor volume shrinkage effect relative to the PBS administration group (0%)” value with colon carcinoma CT26 (setting [3]) amounted to 3.4%. Besides, the “antitumor effect in vivo (in words)” value in the experiment on colon carcinoma CT26 (direct administration into the solid tumor) is recorded as “Antitumor effect was hardly recognized”.
